Source: patent US5618931A, “Acetylenes disubstituted with a 5 substituted dihydronaphthyl group and with an aryl or heteroaryl group having retinoid-like biological activity” (Allergan, priority 1994, dated 1997)

Experiments:
[1] = tested on: ornithine decarboxylase (ODC), TPA-induced activity; test: ODC assay: inhibition of TPA induction of ornithine decarboxylase; format: biochemical; settings: concentration of the test compound which causes 80% inhibition in the ODC assay (TPA-induced ODC)
Excerpt: The retinoic acid-like activity of these compounds is confirmed through the classic measure of retinoic acid activity involving the effects of retinoic acid on ornithine decarboxylase. The original work on the correlation between retinoic acid and decrease in cell proliferation was done by Verma & Boutwell, Cancer Research, 1977, 37,2196-2201. That reference discloses that ornithine decarboxylase (ODC) activity increased precedent to polyamine biosynthesis. It has been established elsewhere that increases in polyamine synthesis can be correlated or associated with cellular proliferation. Thus, if ODC activity could be inhibited, cell hyperproliferation could be modulated. Although all cases for ODC activity increases are unknown, it is known that 12-O-tetradecanoylphorbol-13-acetate (TPA) induces ODC activity. […] Activity of exemplary compounds of the present invention in the above-described ODC assay is disclosed in Table 2 which provides the IC80 concentration for the respective exemplary compound. ("IC80 " is that concentration of the test compound which causes 80% inhibition in the ODC assay. By analogy, IC60, for example, is that concentration of the test compound which causes 60% inhibition in the ODC assay.)

[2] = tested on: ornithine decarboxylase (ODC), TPA-induced activity; settings: background statement on retinoic acid; cited from earlier work

Row | IC80 conc [1] | SMILES | inhibition of TPA induction of ODC activity (in words) [2]
1 | 17.00 nmols | CCOC(=O)c1ccc(C#Cc2ccc3c(c2)C(OS(=O)(=O)C(F)(F)F)=CCC3(C)C)cc1 [Compound 66, Ethyl 4-[(5-trifluoromethylsulfonyloxy-7,8-dihydro-8,8-dimethylnapth-3-yl)ethynyl]benzoate] | 
2 | 16.80 nmols | CCOC(=O)c1ccc(C#Cc2ccc3c(c2)C(C)(C)CC=C3OS(=O)(=O)C(F)(F)F)cc1 [Compound 87, Ethyl 4-[(5-trifluoromethylsulfonyloxy-7,8-dihydro-8,8-dimethylnaphth-2-yl)ethynyl]benzoate] | 
3 | 2.3 nmols | CCOC(=O)c1ccc(C#Cc2ccc3c(c2)C(Sc2ccccc2)=CCC3(C)C)cc1 [Compound 155, Ethyl 4-[(7,8-dihydro-8,8-dimethyl-5-phenylthionaphth-3yl)ethynyl]benzoate] | 
4 | < 0.1 nmols | CCOC(=O)c1ccc(C#Cc2ccc3c(c2)C(S(=O)(=O)c2ccccc2)=CCC3(C)C)cc1 [Compound 157, Ethyl 4-[(7,8-dihydro-8,8-dimethyl-5-phenylsulfonylnaphth-3-yl)ethynyl]benzoate] | 
5 |  | CC1=C(/C=C/C(C)=C/C=C/C(C)=C/C(=O)O)C(C)(C)CCC1 [Retinoic acid] | inhibits this induction of ODC activity by TPA

Row | SMILES | IC80 conc [1] | inhibition of TPA induction of ODC activity (in words) [2]
6 | CCOC(=O)c1ccc(C#Cc2ccc3c(c2)C(C)(C)CC=C3OC(C)=O)cc1 [Compound 105, Ethyl 4-[(5-acetoxy-7,8-dihydro-8,8-dimethylnaphth-2-yl)ethynyl]benzoate] | 0.76 nmols | 
7 | CCOC(=O)c1ccc(C#Cc2ccc3c(c2)C(OC(C)=O)=CCC3(C)C)cc1 [Compound 126, Ethyl 4-[(5-acetoxy-7,8-dihydro-8,8-dimethylnaphth-3-yl)ethynyl]benzoate] | 0.58 nmols | 
